Measurements published in ChEMBL document CHEMBL3301458, “MMV Malaria Box hERG screening”.
Active and inactive are the calls of the source. How the calls were made is not given here.

Assays:
[1] = biological target: T1, hERG (Kv11.1, KCNH2) (Homo sapiens, UniProt Q12809); assay: in vitro
Description: MMV: Malaria Box compounds were tested for inhibition of the human ether a go-go related gene (hERG), Kv11.1 channel, using IonWorks 384-well patch clamp electrophysiology at 1.1uM (3 independent assay plates up to 12 cells per concentration).

[2] = biological target: T1, hERG (Kv11.1, KCNH2); assay: in vitro; remark: listed apart in the source
Description: MMV: Malaria Box compounds were tested for inhibition of the human ether a go-go related gene (hERG), Kv11.1 channel, using IonWorks 384-well patch clamp electrophysiology at 11.1uM (3 independent assay plates up to 12 cells per concentration).

T1 sequence (Q12809 whole entry): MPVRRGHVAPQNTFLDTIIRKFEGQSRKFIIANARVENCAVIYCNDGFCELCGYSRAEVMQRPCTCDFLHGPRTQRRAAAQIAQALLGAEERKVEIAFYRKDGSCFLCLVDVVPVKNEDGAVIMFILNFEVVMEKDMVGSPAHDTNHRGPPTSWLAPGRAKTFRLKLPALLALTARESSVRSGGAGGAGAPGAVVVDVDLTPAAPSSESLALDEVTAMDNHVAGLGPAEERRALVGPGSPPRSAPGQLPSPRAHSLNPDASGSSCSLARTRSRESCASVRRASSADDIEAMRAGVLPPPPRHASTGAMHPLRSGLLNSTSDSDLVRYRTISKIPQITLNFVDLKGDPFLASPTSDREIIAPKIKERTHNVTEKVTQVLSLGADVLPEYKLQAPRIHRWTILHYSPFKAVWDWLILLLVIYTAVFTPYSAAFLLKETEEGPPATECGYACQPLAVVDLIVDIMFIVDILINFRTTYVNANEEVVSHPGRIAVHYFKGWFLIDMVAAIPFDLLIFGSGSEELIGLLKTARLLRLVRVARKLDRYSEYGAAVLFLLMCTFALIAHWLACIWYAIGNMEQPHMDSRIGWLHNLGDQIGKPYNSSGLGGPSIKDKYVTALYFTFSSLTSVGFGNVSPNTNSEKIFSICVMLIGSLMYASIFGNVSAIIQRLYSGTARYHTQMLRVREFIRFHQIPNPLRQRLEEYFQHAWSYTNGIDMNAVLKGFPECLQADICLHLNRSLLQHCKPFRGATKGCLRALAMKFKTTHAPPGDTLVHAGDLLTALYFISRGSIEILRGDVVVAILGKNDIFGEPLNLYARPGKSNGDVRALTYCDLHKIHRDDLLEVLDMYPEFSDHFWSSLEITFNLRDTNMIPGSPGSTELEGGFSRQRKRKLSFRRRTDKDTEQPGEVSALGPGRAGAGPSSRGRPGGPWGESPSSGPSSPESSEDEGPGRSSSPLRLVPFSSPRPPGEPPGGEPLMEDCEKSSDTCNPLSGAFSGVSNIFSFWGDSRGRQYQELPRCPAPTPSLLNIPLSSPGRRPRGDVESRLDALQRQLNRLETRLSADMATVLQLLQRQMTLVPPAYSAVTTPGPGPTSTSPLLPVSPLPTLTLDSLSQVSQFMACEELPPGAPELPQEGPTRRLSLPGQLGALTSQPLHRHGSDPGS

Compound: COc1ccc2sc(N(Cc3cccnc3)C(=O)c3ccc(C#N)cc3)nc2c1
- inhibition at 1.1 µM [1]: 14%
- inhibition at 11.1 µM [2]: 82% (active)

Compound: O=C(NC1CCN(Cc2ccccc2)CC1)c1cc2nc(-c3ccc(Cl)s3)cc(C(F)(F)F)n2n1
- inhibition at 1.1 µM [1]: 21%
- inhibition at 11.1 µM [2]: 60% (active)

Compound: CCn1c2c(c(=N)c3c1CCC3)CCCC2
- inhibition at 1.1 µM [1]: 48%
- inhibition at 11.1 µM [2]: 104% (active)

Compound: O=C(NCCCN1CCC(N2CCCCC2)CC1)C1=Cc2cc(Br)ccc2OC1
- inhibition at 1.1 µM [1]: 5%
- inhibition at 11.1 µM [2]: 89% (active)

Compound: Cc1ccc(OCCCCCCNCCO)c(C)c1
- inhibition at 1.1 µM [1]: -6%
- inhibition at 11.1 µM [2]: 21% (inactive)

Compound: COC(=O)c1ccc(Cl)c2c1C1C=CCC1C(c1cccc3ccccc13)N2 (configuration not stated)
- inhibition at 1.1 µM [1]: 10%
- inhibition at 11.1 µM [2]: 110% (active)

Compound: CCOC(=O)c1c(C)n(-c2ccccc2)c2ccc(OC(=O)c3cc(OC)c(OC)c(OC)c3)cc12
- inhibition at 1.1 µM [1]: -6%
- inhibition at 11.1 µM [2]: 11% (inactive)

Compound: OC(CNC1CCCCC1)Cn1c2ccc(I)cc2c2cc(I)ccc21 (configuration not stated)
- inhibition at 1.1 µM [1]: -5%
- inhibition at 11.1 µM [2]: 12% (inactive)

Compound: CC1(c2ccccc2)Nc2ccccc2-c2nc3ccccc3n21 (configuration not stated)
- inhibition at 1.1 µM [1]: -10%
- inhibition at 11.1 µM [2]: 29%

Compound: Cc1ccc(C(=O)c2oc3ccc4c(C)cc(=O)oc4c3c2C)cc1
- inhibition at 1.1 µM [1]: -3%
- inhibition at 11.1 µM [2]: 7% (inactive)

Compound: COc1cccc(Nc2nc(NCCO)c3ccccc3n2)c1
- inhibition at 1.1 µM [1]: 18%
- inhibition at 11.1 µM [2]: 57% (active)

Compound: c1ccc2cc3c(Nc4ccc(N5CCOCC5)cc4)ccnc3cc2c1
- inhibition at 1.1 µM [1]: 38%
- inhibition at 11.1 µM [2]: 87% (active)

Compound: COc1cccc(O)c1CN1CCC2(CCCN(Cc3ccc(F)cc3)C2)C1 (configuration not stated)
- inhibition at 1.1 µM [1]: 0%
- inhibition at 11.1 µM [2]: 86% (active)

Compound: Cc1cc(N2CCN(C3CCCC3)CC2)n2c(nc3ccccc32)c1C#N
- inhibition at 1.1 µM [1]: -3%
- inhibition at 11.1 µM [2]: 45%

Compound: CN1CCN(c2ncnc3c2[nH]c2ccc(Cl)cc23)CC1
- inhibition at 1.1 µM [1]: 15%
- inhibition at 11.1 µM [2]: 92% (active)

Compound: Nc1ccc(-c2nc3cc(Oc4ccc(Oc5ccc6[nH]c(-c7ccc(N)cc7)nc6c5)cc4)ccc3[nH]2)cc1
- inhibition at 1.1 µM [1]: 18%
- inhibition at 11.1 µM [2]: 23% (inactive)

Compound: Cc1ccc(-c2cc3c(SCC(=O)Nc4cc(C(F)(F)F)ccc4Cl)nccn3n2)cc1
- inhibition at 1.1 µM [1]: 2%
- inhibition at 11.1 µM [2]: 29%

Compound: O=C(Nc1ccc(Br)cc1)Nc1cccc(Cl)c1
- inhibition at 1.1 µM [1]: -5%
- inhibition at 11.1 µM [2]: 11% (inactive)

Compound: CCOC(=O)c1c(C)n(-c2ccc(Cl)cc2)c2ccc(OC(=O)C=Cc3ccccc3)cc12
- inhibition at 1.1 µM [1]: 2%
- inhibition at 11.1 µM [2]: 9% (inactive)

Compound: CC1CCCCN1CCCNC(=O)c1ccc2c(c1)sc1nc(-c3ccc(F)cc3)cn12 (configuration not stated)
- inhibition at 1.1 µM [1]: 64%
- inhibition at 11.1 µM [2]: 81%

Compound: COc1ccc(C=C2SC(=N)N(c3ccccc3OC)C2=O)cc1
- inhibition at 1.1 µM [1]: 7%
- inhibition at 11.1 µM [2]: 43%

Compound: Cc1cccc(Nc2nc(N)c3ccccc3n2)c1
- inhibition at 1.1 µM [1]: 15%
- inhibition at 11.1 µM [2]: 49%

Compound: CCCCc1c(C)nc2c(OC)cccc2c1O
- inhibition at 1.1 µM [1]: -9%
- inhibition at 11.1 µM [2]: 4% (inactive)

Compound: COc1ccc(-c2cn3c(C(=O)Nc4ccccc4Cl)c(-c4ccccc4)c4c3n2CCCC4)cc1
- inhibition at 1.1 µM [1]: 17%
- inhibition at 11.1 µM [2]: 56% (active)

Compound: FC(F)(F)c1cccc(Nc2nc(-c3ccccc3)nc3ncccc23)c1
- inhibition at 1.1 µM [1]: -8%
- inhibition at 11.1 µM [2]: 0% (inactive)

Compound: Nc1ccn([C@@H]2O[C@H](CO)[C@@H](O)[C@H]2O)c(=O)n1 [CYTIDINE]
- inhibition at 1.1 µM [1]: 0%
- inhibition at 11.1 µM [2]: 8% (inactive)
